The values below come from publication PMC8865417, “Receptor Interaction Profiles of 4-Alkoxy-3,5-Dimethoxy-Phenethylamines (Mescaline Derivatives) and Related Amphetamines” (Frontiers in Pharmacology, 2022).

Where two headings read alike, the source gives them in different places. Where only a bound is given, the exact number is not on record here.

Test [1] has as its target T1, h5-HT2A receptor (Homo sapiens, UniProt P28223).
T1 construct: expressed in transfected cells; host or cells: HEK 293 cells (membrane preparations)
Conditions: read-out: h5-HT2A Receptor binding Ki ± SD; cited from earlier work.

A further test has as its system humans. Conditions: cited from earlier work.
A further test concerns the target T2, hSERT (Homo sapiens, UniProt P31645).
T2 construct: expressed in transfected cells; host or cells: HEK 293 cells (membrane preparations)
The test is described as follows: Radioligand binding at hSERT ([3H]citalopram).

A further test concerns the target T3, human TAAR1 (Homo sapiens, UniProt Q96RJ0).
T3 construct: expressed in transfected cells; host or cells: HEK 293 cells
T3 sequence (Q96RJ0 1-339): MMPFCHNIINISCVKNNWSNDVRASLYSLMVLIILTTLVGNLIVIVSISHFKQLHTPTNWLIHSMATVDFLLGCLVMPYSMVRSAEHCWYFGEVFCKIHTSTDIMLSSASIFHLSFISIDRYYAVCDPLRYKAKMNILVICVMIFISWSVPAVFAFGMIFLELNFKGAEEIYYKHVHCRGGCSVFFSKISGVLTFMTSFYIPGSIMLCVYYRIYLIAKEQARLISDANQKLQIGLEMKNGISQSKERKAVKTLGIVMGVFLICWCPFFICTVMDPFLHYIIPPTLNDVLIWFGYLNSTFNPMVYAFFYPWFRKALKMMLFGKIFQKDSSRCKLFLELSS
The test is described as follows: Activity at the human TAAR1 (cAMP assay, HEK 293 cells). It counts as cell-based. The protocol:
Once 80–90% confluency was reached, the cells were collected by removing the medium, washing with PBS and then adding 5 ml of trypsin/EDTA solution for 5 min at 37°C. Next, 45 ml of medium was added and the entire mixture was transferred into a falcon tube. The tube was then centrifuged at room temperature for 3 min at 900 revolutions per minute (rpm). Next, the supernatant was removed in order to resuspend the remaining cell pellet in fresh medium to 5 × 10^5 cells/ml. Hundred microliter of the cells was transferred into a 96-well plate ([…]; BIOCOAT 6640, Becton Dickinson, Allschwil, Switzerland) and incubated for 20 h at 37°C.
For the cAMP assay, the aspirated medium was replaced with 50 μl PBS without Ca^2+ and Mg^2+ ions. Using snap inversion, the PBS was extracted and the plate was gently tapped against tissue. Next, 90 μl of Krebs-Ringer Bicarbonate buffer (KRB, Sigma-Aldrich) containing 1 mM IBMX was added and incubated for 60 min at 37°C and 5% CO2/95% air. Each test compound was examined in duplicate in a concentration range between 300 pM and 30 μM. A standard curve with a range of cAMP concentrations (0.13 nM–10 μM) was created for each 96-well plate. Each experiment was accompanied with a reference plate that included RO5256390, β-phenylethylamine and p-tyramine. The cells were exposed to either 30 μl of compound solution, 30 μl of β-phenylethylamine (as maximal response), or a basal control in PBS (containing 1 mM IBMX) for 40 min at 37°C. Next, under forceful shaking using black lids, the cells were exposed to 50 μl of 3× detection mix solution (composed of Ru-cAMP Alexa700 anti-cAMP antibody and lysis buffer) for 120 min at room temperature. Using the NanoScan reader (Innovate Optische Messtechnik, Berlin, Germany; 456 nm excitation wavelength; 630 and 700 nm emission wavelengths), the fluorescence was examined and the FRET signal was determined using the following equation; FRET (700 nm)- P × FRET (630 nm), where P = Ru (700 nm)/Ru (630 nm).
Background: Cyclic AMP is a second messenger, typically raised through Gs and lowered through Gi signalling.

For the next test, the target named is T4, hNET (Homo sapiens, UniProt P23975).
T4 construct: expressed in transfected cells; host or cells: HEK 293 cells (membrane preparations)
T4 sequence (P23975 whole entry): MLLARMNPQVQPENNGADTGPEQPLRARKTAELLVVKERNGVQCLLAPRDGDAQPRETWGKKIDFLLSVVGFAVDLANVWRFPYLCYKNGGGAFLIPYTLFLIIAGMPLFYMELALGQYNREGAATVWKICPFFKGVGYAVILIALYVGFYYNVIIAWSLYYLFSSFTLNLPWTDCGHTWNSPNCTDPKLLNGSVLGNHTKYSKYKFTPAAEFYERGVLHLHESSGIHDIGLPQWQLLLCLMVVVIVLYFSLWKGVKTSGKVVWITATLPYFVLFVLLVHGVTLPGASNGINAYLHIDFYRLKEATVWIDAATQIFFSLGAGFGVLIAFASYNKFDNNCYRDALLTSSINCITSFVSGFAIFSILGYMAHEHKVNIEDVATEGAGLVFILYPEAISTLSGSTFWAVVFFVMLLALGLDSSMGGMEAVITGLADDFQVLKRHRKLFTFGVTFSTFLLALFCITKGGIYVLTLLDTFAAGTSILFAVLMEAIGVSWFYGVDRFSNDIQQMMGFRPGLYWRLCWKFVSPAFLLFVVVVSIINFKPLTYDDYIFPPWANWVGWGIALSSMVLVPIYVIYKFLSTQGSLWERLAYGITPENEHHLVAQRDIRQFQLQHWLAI
The test is described as follows: Radioligand binding at hNET (N-methyl-[3H]nisoxetine).

The next test has as its target T5, mouse TAAR1 (Mus musculus, UniProt Q923Y8).
T5 construct: expressed in transfected cells; host or cells: HEK 293 cells (membrane preparations)
The test is described as follows: Radioligand binding at mouse TAAR1 ([3H]RO5166017).

A further test addresses T6, rat TAAR1 (Rattus norvegicus, UniProt Q923Y9).
T6 construct: expressed in transfected cells; host or cells: HEK 293 cells (membrane preparations)
The test is described as follows: Radioligand binding at rat TAAR1 ([3H]RO5166017).

In a further test the target is T7, hα2A adrenergic receptor (Homo sapiens, UniProt P08913).
T7 construct: expressed in transfected cells; host or cells: Chinese hamster lung cells (membrane preparations)
T7 sequence (P08913 1-465): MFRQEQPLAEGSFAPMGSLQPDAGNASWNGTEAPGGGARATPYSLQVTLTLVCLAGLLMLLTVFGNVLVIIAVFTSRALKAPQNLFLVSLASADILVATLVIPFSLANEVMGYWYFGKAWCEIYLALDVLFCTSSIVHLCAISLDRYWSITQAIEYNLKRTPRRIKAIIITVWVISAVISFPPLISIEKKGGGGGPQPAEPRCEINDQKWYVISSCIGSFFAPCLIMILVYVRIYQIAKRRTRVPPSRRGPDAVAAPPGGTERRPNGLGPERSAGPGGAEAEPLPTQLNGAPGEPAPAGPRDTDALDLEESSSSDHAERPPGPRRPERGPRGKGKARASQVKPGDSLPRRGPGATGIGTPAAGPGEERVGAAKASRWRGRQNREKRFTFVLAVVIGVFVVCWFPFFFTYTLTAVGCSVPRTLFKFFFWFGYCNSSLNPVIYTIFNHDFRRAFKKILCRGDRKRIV
The test is described as follows: Radioligand binding at hα2A adrenergic receptor ([3H]rauwolscine).

Another test addresses T8, hα1A adrenergic receptor (Homo sapiens, UniProt P35348).
T8 construct: expressed in transfected cells; host or cells: Chinese hamster ovary cells (membrane preparations)
T8 sequence (P35348 1-466): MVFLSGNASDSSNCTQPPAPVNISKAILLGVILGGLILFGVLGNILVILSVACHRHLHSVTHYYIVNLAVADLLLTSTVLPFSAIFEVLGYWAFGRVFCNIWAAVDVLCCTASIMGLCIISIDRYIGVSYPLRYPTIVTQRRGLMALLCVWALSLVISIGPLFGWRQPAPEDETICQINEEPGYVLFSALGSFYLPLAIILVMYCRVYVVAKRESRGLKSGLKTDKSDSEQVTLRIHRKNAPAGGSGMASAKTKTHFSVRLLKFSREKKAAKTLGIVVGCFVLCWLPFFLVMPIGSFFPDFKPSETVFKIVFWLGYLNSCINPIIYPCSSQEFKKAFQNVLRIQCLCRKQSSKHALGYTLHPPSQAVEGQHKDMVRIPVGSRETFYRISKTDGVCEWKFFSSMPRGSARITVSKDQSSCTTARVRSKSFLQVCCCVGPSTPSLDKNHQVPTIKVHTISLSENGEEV
The test is described as follows: Radioligand binding at hα1A adrenergic receptor ([3H]prazosin). Conditions: mean ± SD.

Another test addresses human 5-HT2A receptor (Homo sapiens, UniProt P28223). Conditions: for Emax: NIH3T3, read-out: h5-HT2A Activation efficacy max ± SD, relative to 5-HT = 100%.
The target of another test is T9, h5-HT1A receptor (Homo sapiens, UniProt P08908).
T9 construct: expressed in transfected cells; host or cells: HEK 293 cells (membrane preparations)
T9 sequence (P08908 1-422): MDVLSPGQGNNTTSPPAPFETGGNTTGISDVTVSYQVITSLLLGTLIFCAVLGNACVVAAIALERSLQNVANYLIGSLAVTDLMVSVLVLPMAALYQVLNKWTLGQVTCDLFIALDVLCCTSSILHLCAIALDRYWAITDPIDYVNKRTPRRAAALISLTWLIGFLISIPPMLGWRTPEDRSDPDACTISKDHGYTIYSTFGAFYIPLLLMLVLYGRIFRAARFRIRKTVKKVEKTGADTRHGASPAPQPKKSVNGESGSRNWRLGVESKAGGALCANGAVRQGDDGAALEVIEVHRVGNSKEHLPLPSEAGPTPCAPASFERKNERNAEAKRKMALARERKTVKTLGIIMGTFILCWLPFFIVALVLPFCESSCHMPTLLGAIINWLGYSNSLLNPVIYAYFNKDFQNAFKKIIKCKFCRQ
The test is described as follows: Radioligand binding at h5-HT1A receptor ([3H]8-OH-DPAT).

The target of test [2] is T10, dopaminergic hD2 receptor (Homo sapiens, UniProt P14416).
T10 construct: expressed in transfected cells; host or cells: HEK 293 cells (membrane preparations)
T10 sequence (P14416 whole entry): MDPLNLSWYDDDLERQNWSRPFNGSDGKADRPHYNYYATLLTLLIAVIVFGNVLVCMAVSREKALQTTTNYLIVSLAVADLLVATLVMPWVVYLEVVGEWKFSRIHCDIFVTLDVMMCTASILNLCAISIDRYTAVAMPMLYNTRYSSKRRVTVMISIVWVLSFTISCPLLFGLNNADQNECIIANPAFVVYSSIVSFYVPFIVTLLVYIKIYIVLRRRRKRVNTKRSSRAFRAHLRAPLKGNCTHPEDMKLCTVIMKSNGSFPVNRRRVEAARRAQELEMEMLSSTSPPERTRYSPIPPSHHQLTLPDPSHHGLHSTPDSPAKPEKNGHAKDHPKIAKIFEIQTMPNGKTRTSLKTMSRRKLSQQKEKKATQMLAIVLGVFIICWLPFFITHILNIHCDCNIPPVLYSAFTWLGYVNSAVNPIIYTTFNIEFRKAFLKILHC
The test is described as follows: Radioligand binding at dopaminergic hD2 receptor ([3H]spiperone).

In test [3] the target is T1, h5-HT2A receptor. The test is described as follows: Radioligand binding at h5-HT2A receptor ([3H]ketanserin). Conditions: for Ki: h5-HT2A Receptor binding Ki ± SD, [3H]ketanserin, mean ± SD; for Selectivity 5-HT2A vs. 5-HT2C: binding ratio.
For another test, the target named is T11, hDAT (Homo sapiens, UniProt Q01959).
T11 construct: expressed in transfected cells; host or cells: HEK 293 cells (membrane preparations)
T11 sequence (Q01959 whole entry): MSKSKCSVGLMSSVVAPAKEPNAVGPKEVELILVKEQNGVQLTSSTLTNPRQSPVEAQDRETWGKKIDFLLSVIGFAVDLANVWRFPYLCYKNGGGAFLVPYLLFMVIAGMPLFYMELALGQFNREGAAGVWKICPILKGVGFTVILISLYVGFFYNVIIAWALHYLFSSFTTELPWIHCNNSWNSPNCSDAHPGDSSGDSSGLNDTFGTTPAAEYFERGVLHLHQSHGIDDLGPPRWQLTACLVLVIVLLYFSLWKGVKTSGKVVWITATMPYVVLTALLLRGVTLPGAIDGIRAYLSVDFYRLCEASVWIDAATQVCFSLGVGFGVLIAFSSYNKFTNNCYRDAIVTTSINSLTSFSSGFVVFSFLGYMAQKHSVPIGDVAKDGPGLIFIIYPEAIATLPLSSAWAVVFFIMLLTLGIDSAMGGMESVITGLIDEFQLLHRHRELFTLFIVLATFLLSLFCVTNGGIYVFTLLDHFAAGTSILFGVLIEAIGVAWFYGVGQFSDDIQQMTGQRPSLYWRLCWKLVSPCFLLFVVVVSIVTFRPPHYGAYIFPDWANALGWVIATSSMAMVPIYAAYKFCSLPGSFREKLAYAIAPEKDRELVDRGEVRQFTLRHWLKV
The test is described as follows: Radioligand binding at hDAT ([3H]WIN35,428).

The target in the next test is human 5-HT2B receptor (Homo sapiens, UniProt P41595). Conditions: for EC50: h5-HT2B Activation potency EC50 ± SD, HEK 293 cells, calcium FLIPR, mean ± SD.
Sequence of human 5-HT2B receptor (P41595 whole entry): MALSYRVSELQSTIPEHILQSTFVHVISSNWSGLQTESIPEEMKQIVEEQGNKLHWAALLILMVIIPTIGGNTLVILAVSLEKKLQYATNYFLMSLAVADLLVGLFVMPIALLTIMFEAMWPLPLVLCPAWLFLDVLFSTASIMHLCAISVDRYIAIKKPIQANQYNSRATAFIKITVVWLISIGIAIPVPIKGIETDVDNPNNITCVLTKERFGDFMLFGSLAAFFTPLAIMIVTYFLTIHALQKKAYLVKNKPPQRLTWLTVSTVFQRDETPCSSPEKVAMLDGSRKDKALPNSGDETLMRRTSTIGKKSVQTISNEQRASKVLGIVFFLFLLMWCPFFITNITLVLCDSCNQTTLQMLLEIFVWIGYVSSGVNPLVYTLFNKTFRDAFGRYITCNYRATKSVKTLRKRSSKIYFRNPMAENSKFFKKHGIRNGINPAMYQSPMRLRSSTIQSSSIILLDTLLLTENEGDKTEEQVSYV
Another test has as its system head twitch response. The arrangement: method as in Halberstadt et al. (2019). Conditions: ref Halberstadt et al. (2019); cited from earlier work.
Another test concerns the target T12, h5-HT2C receptor (Homo sapiens, UniProt P28335).
T12 construct: expressed in transfected cells; host or cells: HEK 293 cells (membrane preparations)
T12 sequence (P28335 33-458): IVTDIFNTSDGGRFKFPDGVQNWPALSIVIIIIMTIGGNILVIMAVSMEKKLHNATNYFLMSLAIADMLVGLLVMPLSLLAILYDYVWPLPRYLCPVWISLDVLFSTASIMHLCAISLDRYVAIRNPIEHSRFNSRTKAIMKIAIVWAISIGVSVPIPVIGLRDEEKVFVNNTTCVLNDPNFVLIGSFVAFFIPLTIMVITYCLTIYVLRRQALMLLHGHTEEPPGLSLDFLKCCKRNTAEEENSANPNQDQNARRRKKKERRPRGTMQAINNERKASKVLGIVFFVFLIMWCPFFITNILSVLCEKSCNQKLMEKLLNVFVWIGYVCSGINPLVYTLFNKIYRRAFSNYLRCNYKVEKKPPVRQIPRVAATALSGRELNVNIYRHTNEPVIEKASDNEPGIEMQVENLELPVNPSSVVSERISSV
The test is described as follows: biochemical. It counts as binding. Conditions: [3H]mesulergine; mean ± SD; read-out: h5-HT2C Receptor binding Ki ± SD.

T6 sequence (Q923Y9 whole entry): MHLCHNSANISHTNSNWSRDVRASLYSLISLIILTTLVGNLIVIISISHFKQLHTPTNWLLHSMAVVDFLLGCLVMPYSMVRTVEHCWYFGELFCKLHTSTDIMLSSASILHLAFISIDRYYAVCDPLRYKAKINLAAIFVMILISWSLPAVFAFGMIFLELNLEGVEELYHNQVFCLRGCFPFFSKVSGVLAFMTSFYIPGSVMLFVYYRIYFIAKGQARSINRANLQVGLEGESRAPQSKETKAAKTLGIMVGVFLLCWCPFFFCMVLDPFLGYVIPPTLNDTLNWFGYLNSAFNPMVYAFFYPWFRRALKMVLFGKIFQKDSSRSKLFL
T2 sequence (P31645 whole entry): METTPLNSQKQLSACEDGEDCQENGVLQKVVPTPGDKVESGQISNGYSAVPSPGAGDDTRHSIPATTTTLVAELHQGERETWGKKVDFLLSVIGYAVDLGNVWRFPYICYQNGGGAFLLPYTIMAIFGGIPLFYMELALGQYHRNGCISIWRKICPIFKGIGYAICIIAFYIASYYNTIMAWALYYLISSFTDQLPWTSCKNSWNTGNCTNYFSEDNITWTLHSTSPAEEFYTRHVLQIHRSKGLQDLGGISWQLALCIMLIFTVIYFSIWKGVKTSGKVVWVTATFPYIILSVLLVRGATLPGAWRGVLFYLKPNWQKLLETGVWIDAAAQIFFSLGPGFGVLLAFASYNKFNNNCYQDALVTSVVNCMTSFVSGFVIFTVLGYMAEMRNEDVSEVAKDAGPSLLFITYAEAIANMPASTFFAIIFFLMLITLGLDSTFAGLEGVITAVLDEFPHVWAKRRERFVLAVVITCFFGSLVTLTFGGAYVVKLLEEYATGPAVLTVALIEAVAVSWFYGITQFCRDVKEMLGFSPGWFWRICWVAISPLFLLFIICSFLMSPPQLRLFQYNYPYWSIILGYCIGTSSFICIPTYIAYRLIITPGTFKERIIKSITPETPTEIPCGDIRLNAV
Sequence of human 5-HT2A receptor (P28223 whole entry): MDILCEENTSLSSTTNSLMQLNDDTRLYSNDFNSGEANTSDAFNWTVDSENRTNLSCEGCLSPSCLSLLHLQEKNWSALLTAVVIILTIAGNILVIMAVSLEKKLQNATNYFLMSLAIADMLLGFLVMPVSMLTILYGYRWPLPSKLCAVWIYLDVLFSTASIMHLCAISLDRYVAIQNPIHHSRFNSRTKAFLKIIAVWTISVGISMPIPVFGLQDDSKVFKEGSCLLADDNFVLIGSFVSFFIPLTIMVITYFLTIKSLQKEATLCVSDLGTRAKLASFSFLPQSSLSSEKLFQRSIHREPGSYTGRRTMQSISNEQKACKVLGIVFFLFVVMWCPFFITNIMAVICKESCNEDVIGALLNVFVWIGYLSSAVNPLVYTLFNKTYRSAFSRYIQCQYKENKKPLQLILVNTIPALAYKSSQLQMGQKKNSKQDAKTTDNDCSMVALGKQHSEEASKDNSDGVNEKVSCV
T1 sequence (P28223 whole entry): as above
T5 sequence (Q923Y8 whole entry): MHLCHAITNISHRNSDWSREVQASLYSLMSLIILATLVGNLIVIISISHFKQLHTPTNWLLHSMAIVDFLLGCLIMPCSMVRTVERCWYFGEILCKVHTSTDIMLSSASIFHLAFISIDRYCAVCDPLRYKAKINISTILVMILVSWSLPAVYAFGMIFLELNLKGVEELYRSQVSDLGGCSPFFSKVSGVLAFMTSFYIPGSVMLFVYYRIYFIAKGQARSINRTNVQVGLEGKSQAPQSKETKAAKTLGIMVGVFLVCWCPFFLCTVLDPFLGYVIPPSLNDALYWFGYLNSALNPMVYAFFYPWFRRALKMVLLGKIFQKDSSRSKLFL

On to `COc1cc(CCN)c(OC)cc1Br` [2C-B], for which the Ki (usually a dissociation constant, usually derived from enzyme kinetics or from competition with a known ligand) on h5-HT2A receptor [1] was 0.0069 ± 0.0018 µM.
For `COc1cc(CC(C)N)cc(OC)c1OC` (stereo not drawn) [compound 6, 3,4,5-trimethoxyamphetamine], the Duration of action in the test on humans (humans, ref Shulgin and Shulgin 1991, Shulgin and Shulgin 1997, Trachsel et al., 2013) is 6 to 8 h. Besides, the Human oral dose in the test with humans (psychedelic dose in humans, ref Shulgin and Shulgin 1991, Shulgin and Shulgin 1997, Trachsel et al., 2013, listed as TMA) was 100 to 250 mg. Besides, the “Psychedelic / active dose in humans” value in the test on humans (ref Shulgin and Shulgin 1991) was 100 to 200 mg. For the same compound, the Ki is more than 7.5 µM at hSERT; more than 9.7 µM at hNET; 1.8 µM at mouse TAAR1; 3.2 µM on rat TAAR1; 4.03 µM on hα2A adrenergic receptor; more than 8.7 µM at hα1A adrenergic receptor. Also, the Ki on h5-HT1A receptor was more than 5.6 µM; in test [2] it was more than 6.3 µM; on h5-HT2A receptor [3] it was more than 12 µM; at hDAT, more than 8.5 µM. The EC50 (in general, the midpoint of the concentration-response curve) on human TAAR1 was more than 10 µM; on human 5-HT2A receptor, 1.7 ± 0.4 µM; on human 5-HT2B receptor, more than 10 µM. For the same compound, the Emax on human 5-HT2A receptor lay within 40 to 73%.
Take `CCOc1c(OC)cc(CC(C)N)cc1OC` (stereo not drawn) [compound 21, 3,5-dimethoxy-4-ethoxyamphetamine]: the Ki is more than 7.5 µM at hSERT; more than 9.7 µM on hNET; more than 4.2 µM on mouse TAAR1; more than 4.7 µM on rat TAAR1; more than 5.1 µM at hα2A adrenergic receptor; more than 8.7 µM on hα1A adrenergic receptor. Besides, the Ki was more than 5.6 µM at h5-HT1A receptor; more than 6.3 µM in [2]; 3.7 µM on h5-HT2A receptor [3]; more than 8.5 µM on hDAT; 4.9 µM on h5-HT2C receptor. For the same compound, the Head twitch response entry in the test on head twitch response is given as “induced a head twitch response with almost identical potency”. Besides, the EC50 on human 5-HT2A receptor is 0.16 ± 0.05 µM; on human 5-HT2B receptor, 0.095 ± 0.13 µM. For the same compound, the Emax at human 5-HT2A receptor is 86 to 102%; on human 5-HT2B receptor (HEK293, read-out: h5-HT2B Activation efficacy max ± SD, relative to 5-HT = 100%), 18 to 29%. Besides, the “Selectivity 5-HT2A vs. 5-HT2C” value on h5-HT2A receptor [3] is 1.3.
`C=CCOc1c(OC)cc(CC(C)N)cc1OC` (stereo not drawn) [compound 31, 4-allyloxy-3,5-dimethoxyamphetamine]: in the test on humans (ref Trachsel et al., 2013), the “Active dose in humans” value is 15 to 30 mg. Besides, the inhibition constant Ki on hSERT was more than 7.5 µM; on hNET, more than 9.7 µM; at mouse TAAR1, 3.3 µM; on rat TAAR1 it was 3.6 µM; on hα2A adrenergic receptor, more than 5.1 µM; at hα1A adrenergic receptor, more than 8.7 µM. In addition, the inhibition constant Ki on h5-HT1A receptor was more than 5.6 µM; in [2], more than 6.3 µM; on h5-HT2A receptor [3], 1.1 µM; at hDAT, more than 8.5 µM; on h5-HT2C receptor, 1.7 µM. The figures for the EC50 at human 5-HT2A receptor and on human 5-HT2B receptor were 0.19 ± 0.03 µM and more than 10 µM, respectively. Moreover, at h5-HT2A receptor [3], the “Selectivity 5-HT2A vs. 5-HT2C” value was determined as 1.7. On h5-HT2A receptor [3] (ratio of Ki values), the “Increase in 5-HT2A receptor affinity compared with TMA (6)” value is reported as not below 10 fold.
